Measurements reported in PMC10545732, “Structure-based drug discovery of a corticotropin-releasing hormone receptor 1 antagonist using an X-ray free-electron laser” (Experimental & Molecular Medicine, 2023).
pIC50, pKi: −log10 of the molar value. Read-outs that look alike come from different tables or passages of the source. Blank lines part the entries; values can stand above or below the compound they belong to.

What was measured:
CRF1R [1] = target: T1, CRF1R (Homo sapiens, UniProt P34998); experiment: Calcium mobilization assay (hCRF1R Ca2+ antagonism); assay type: cell-based; details: for IC50 (in words): reason for not selecting
T1 construct: HEK-Gα15 cells (Eurofins Scientific) transfected with CRF1R; host or cells: HEK-Gα15 cells
T1 sequence (P34998 24-415): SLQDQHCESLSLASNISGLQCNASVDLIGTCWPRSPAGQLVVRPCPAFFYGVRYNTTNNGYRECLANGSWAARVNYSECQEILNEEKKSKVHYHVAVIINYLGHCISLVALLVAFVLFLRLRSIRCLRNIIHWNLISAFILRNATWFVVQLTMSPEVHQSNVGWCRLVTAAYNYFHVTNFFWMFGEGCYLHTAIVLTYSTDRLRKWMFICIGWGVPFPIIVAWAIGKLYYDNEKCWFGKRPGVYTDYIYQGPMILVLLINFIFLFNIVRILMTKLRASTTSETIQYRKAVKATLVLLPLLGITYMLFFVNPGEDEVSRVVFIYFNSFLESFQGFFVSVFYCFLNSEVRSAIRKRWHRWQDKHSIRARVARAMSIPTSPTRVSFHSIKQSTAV
Protocol: HEK-Gα15 cells (Eurofins Scientific) transfected with CRF1R were plated in 96-well plates at a density of 50,000 cells/100 μL per well and incubated overnight. The next day, the cells were incubated with a Calcium 6 reagent (Molecular Devices) containing 0.5 mM probenecid (Sigma) at 37 °C for 1 h before adding compounds or dimethyl sulfoxide DMSO (positive and negative control; final concentration 0.1%). After incubation at 37 °C for 1 h, 50 μL urocortin (final concentration 2 nM) (Tocris) was dispensed into the well with FLIPR-tetra (Molecular Devices). […] Intracellular calcium changes were recorded at excitation and emission wavelengths of 470–495 and 515–575 nm, respectively. Relative fluorescence units (RFU) were calculated as the fluorescence signal maximum minus the signal minimum for 30 s after addition. The graphs and IC50 concentrations were calculated using GraphPad Prism 6 software.

C57BL/6J mice [2] = experiment: Open field test (OFT); assay type: in vivo; details: 30 mg/kg orally for 3 days, 1 h open field
Protocol: (§1) C57BL/6J mice (male, 9–10 weeks old) were used for the behavioral tests. All mice were maintained under a 12:12-h light–dark cycle (lights on at 7:00 A.M.) with access to food and water ad libitum. Animal care and handling were performed according to guidelines by the Institutional Animal Care and Use Committee of Yonsei University (Seoul, Korea). Antalarmin, BMK-C203, and BMK-C205 were dissolved in peceol: TPGS: PEG400 (vehicle) (70%:20%:10%, respectively) and administered orally at a dose of 30 mg/kg for 3 days at 24-h intervals. All behavioral tests were conducted 2 h after the third drug was administered during light periods of the circadian cycle. TSTs were performed to verify the effect of CRF1R antagonists on depressive-like behavior. Each mouse was suspended by its tail on a bar 30 cm above the ground for 6 min using adhesive tape. Their movements were recorded by a camera and analyzed using the same parameters via EthoVision XT 8.5 software (Noldus Technologies). Immobility times during the last 4 min of the task were measured. Each mouse was placed in an open field (40 cm × 40 cm × 40 cm chamber) for 1 h to conduct an open field test (OFT) and test locomotion. Their locomotion was recorded and analyzed using EthoVision XT 8.5.

C57BL/6J mice [3] = experiment: Tail suspension test (TST); assay type: in vivo; details: 30 mg/kg orally for 3 days, test 2 h after third dose, last 4 min of 6 min
Protocol: as §1

ACTH serum levels = experiment: Serum ACTH level after TST (ELISA); assay type: in vivo, mice; details: 30 mg/kg orally for 3 days, immediately after TST
Protocol: (§2) The mice were anesthetized via intraperitoneal injections of 2,2,2-tribromoethanol (300 mg/kg, Sigma-Aldrich) immediately after the TST and before blood from the heart was sampled. Blood samples were collected in plastic tubes and incubated at room temperature for at least 2 h. The sera were extracted after centrifugation at 13,000×g for 10 min at 4 °C. CORT levels were determined via LC‒MS analysis. Serum (10 µL) was mixed with 20 μL of an internal standard solution (d4-cortisol) to prepare the samples. Subsequently, 100 μL of acetonitrile was added, and the mixture was centrifuged at 16,000×g for 10 min for protein precipitation. The supernatants (60 μL) were transferred into an autosampler vial, and 30 μL of water was added for efficient separation via high-performance liquid chromatography (HPLC). LC‒MS was performed with a triple quadrupole mass spectrometer coupled with HPLC using a C18 reversed-phase column. CORT levels were determined using a calibration curve constructed using CORT-spiked mouse serum. Serum samples (20 μL) were analyzed using a commercially available ELISA kit for ACTH (ab263880, Abcam) to measure ACTH serum levels.

PK studies in rats = assay type: in vivo, SD rats; details: male, Sprague-Dawley, rat, plasma, SD rats, n = 3
Protocol: CRF1R antagonist PKs were studied in naïve male SD rats following a single i.v. bolus injection or p.o. gavage. The i.v. injections used Antalarmin, BMK-C203, or BMK-C205 at doses of 5 mg/kg and BMK-I-152 at a dose of 1 mg/kg. The antagonist’s doses in the p.o. injection was 10 mg/kg. Three male SD rats weighing between 220 and 260 g were used to evaluate CRF1R antagonist PKs. The vehicle used for all dose groups was […]: TPGS: PEG400 (70%:20%:10%). Blood samples were collected from all treatment groups at 0 h (predose), 0.083, 0.25, 0.5, 1, 2, 4, 6, 8, and 24 h after dosing. Antalarmin, BMK-I-152, BMK-C203, and BMK-C205 concentrations in the plasma samples were determined via LC‒MS/MS (LLOQ was 1 ng/mL for CRF1R antagonists). PK parameter estimates were determined using the serial time-course profiles for plasma concentrations of three male rats per group via noncompartmental analysis using commercially available software (Phoenix WinNonlin, version 8.1, Pharsight Corporation, Mountain View, CA).

CORT serum levels = experiment: Serum CORT level after TST (LC-MS); assay type: in vivo, mice; details: 30 mg/kg orally for 3 days, immediately after TST
Protocol: as §2

CYP2C19 = target: T2, CYP2C19 (Homo sapiens, UniProt P33261); experiment: CYP inhibition assay CYP2C19 (S-mephenytoin 4-hydroxylase); assay type: in vitro ADME
T2 construct: 0.25 mg/mL human liver microsomes; from tissue; host or cells: human liver microsomes
T2 sequence (P33261 whole entry): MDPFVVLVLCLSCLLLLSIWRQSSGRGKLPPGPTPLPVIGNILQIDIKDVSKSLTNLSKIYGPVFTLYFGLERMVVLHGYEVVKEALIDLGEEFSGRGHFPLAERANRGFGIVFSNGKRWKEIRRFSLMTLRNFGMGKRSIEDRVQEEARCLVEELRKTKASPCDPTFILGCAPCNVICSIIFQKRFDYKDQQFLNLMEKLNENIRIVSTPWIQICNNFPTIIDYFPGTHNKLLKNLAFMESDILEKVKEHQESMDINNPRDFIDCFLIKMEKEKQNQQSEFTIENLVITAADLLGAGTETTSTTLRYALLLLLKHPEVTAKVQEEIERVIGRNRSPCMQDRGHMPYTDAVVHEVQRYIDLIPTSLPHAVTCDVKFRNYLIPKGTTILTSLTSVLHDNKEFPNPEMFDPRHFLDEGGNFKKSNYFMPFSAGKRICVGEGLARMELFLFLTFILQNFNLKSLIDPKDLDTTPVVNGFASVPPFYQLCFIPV

CYP2C9 = target: T3, CYP2C9 (Homo sapiens, UniProt P11712); experiment: CYP inhibition assay CYP2C9 (diclofenac 4-hydroxylase); assay type: in vitro ADME
T3 construct: 0.25 mg/mL human liver microsomes; from tissue; host or cells: human liver microsomes
T3 sequence (P11712 whole entry): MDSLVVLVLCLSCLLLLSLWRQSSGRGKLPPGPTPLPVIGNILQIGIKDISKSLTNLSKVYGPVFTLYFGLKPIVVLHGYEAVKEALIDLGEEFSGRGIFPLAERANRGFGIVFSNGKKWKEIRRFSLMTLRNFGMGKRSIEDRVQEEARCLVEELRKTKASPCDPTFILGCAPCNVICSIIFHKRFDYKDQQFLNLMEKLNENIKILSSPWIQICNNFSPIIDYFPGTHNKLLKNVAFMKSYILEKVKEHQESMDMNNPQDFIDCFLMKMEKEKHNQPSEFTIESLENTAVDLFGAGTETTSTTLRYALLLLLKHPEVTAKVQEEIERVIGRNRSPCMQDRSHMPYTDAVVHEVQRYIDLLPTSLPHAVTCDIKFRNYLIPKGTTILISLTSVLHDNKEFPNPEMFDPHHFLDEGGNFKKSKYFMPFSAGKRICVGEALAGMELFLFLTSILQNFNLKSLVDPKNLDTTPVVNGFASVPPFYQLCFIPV

CYP1A2 = target: T4, CYP1A2 (Homo sapiens, UniProt P05177); experiment: CYP inhibition assay CYP1A2 (phenacetin O-demethylase); assay type: in vitro ADME
T4 construct: 0.25 mg/mL human liver microsomes; from tissue; host or cells: human liver microsomes
T4 sequence (P05177 1-516): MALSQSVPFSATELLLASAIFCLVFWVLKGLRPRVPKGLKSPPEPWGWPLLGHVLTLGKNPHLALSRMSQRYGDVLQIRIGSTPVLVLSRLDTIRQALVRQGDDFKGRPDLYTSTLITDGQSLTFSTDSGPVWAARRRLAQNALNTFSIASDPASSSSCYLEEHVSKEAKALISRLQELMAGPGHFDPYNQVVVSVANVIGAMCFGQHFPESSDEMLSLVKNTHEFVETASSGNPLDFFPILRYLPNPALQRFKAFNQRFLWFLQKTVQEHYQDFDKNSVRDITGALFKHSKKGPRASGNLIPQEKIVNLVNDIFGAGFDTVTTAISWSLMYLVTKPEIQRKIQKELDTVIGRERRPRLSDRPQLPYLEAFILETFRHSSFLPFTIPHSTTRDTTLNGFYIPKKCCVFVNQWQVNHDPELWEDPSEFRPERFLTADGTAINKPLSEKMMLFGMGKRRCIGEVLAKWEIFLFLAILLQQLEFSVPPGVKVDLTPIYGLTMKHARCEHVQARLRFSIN

[4] = Microsomal stability assay, human liver microsomes; assay type: in vitro ADME
Protocol: LC‒MS/MS was performed on a TSQ Vantage (Thermo, USA) coupled with a Nexera XR LC system (Shimadzu, Japan)[32]. The separation was performed on a Kinetex C18 column (2.1 × 100 mm, 2.6 µm, Phenomenex, USA) using a mobile phase of 0.1% formic acid and acetonitrile containing 0.1% formic acid. A gradient program was used for elution at a flow rate of 0.3 mL/min. The data were acquired using multiple-reaction monitoring (MRM) in positive mode.

[5] = Microsomal stability assay, rat liver microsomes; assay type: in vitro ADME; details: 1 μM, n = 3
Protocol: The incubation mixtures consisted of 0.5 mg/mL human (Corning, #452117) and rat liver microsomes (Corning, #452701), 0.1 M phosphate buffer (pH 7.4), NADPH regeneration system, and substrates (CRF1R antagonist compounds, 1 µM) in a total volume of 100 μL. […] LC‒MS/MS was performed on a TSQ Vantage (Thermo, USA) coupled with a Nexera XR LC system (Shimadzu, Japan)[32]. The separation was performed on a Kinetex C18 column (2.1 × 100 mm, 2.6 µm, Phenomenex, USA) using a mobile phase of 0.1% formic acid and acetonitrile containing 0.1% formic acid. A gradient program was used for elution at a flow rate of 0.3 mL/min. The data were acquired using multiple-reaction monitoring (MRM) in positive mode. Detection of the ions was performed by monitoring the m/z transition of 494.1 → 336.1 for BMK-I-152, 598.1 → 233.2 for BMK-C203, and 488.1 → 434.1 for BMK-C205.

CRF1R [6] = target: CRF1R; design: method as in PMID 21308801; details: cited from earlier work
CYP2D6 = CYP2D6 (Homo sapiens, UniProt P10635); experiment: CYP inhibition assay CYP2D6 (dextromethorphan O-demethylase); details: 10 μM, human liver microsomes, n = 3
Sequence of CYP2D6 (P10635 whole entry): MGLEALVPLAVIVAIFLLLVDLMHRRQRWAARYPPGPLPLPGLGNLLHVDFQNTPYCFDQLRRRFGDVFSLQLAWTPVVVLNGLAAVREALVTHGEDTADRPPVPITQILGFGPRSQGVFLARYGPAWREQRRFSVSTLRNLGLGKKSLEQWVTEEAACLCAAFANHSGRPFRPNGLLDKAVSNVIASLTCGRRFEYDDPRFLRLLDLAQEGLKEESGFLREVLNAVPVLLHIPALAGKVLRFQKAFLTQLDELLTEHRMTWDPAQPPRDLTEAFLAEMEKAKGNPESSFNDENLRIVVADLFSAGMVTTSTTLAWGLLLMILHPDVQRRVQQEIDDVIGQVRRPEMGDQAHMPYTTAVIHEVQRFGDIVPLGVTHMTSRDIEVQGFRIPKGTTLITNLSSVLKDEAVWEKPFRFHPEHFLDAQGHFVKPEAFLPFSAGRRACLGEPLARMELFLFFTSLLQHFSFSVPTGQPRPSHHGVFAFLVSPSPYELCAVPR

[7] = design: method as in PMID 21308801; details: liver microsomal stability assay; cited from earlier work
CYP3A4 = CYP3A4 (Homo sapiens, UniProt P08684); experiment: CYP inhibition assay CYP3A4 (midazolam 1'-hydroxylase); details: 10 μM, human liver microsomes, n = 3
Sequence of CYP3A4 (P08684 whole entry): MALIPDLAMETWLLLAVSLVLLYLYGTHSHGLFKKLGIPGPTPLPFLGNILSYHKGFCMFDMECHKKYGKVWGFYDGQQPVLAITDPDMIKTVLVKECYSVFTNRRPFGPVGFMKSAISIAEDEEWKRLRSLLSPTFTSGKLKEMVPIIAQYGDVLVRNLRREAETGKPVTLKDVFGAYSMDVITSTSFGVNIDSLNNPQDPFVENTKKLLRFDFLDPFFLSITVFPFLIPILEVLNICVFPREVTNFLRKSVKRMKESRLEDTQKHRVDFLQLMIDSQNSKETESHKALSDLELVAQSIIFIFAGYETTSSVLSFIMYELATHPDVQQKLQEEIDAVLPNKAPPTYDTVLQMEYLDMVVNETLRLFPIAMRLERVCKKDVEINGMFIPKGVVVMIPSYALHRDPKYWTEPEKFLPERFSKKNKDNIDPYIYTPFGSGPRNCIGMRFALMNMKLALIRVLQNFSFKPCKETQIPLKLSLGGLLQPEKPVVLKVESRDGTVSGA

[8] = 10 μM, human liver microsomes, n = 3

IC50 (in words) (CRF1R [1]): high IC50 values
Compound: CCCCN(CCCC(F)(F)F)c1nc(C)nc2c(-c3c(OC)cc(Br)cc3OC)c(C)nn12 [BMK-C207]

AUC(0-t) (PK studies in rats; iv, I.V, 5 mg/kg): 4370 ng·h/mL
half-life (PK studies in rats; iv, I.V, 5 mg/kg): 3.09 h
AUC(0-t) (PK studies in rats; po, P.O, 10 mg/kg): 660 ng·h/mL
Cmax (PK studies in rats; po, P.O, 10 mg/kg): 146 ng/mL
Tmax (PK studies in rats; po, P.O, 10 mg/kg): 4 h
bioavailability (PK studies in rats; po, P.O, 10 mg/kg): 7.6%
half-life (PK studies in rats; po, P.O, 10 mg/kg): 4.08 h
Compound: CCCCN(CC)c1nc(C)nc2c1c(C)c(C)n2-c1c(C)cc(C)cc1C [Antalarmin, reference compound]
OFT locomotion / overall moving distance (C57BL/6J mice [2]): did not differ among groups
TST immobility time versus vehicle (C57BL/6J mice [3]): no significant difference
serum ACTH level versus vehicle (ACTH serum levels): no significant difference
serum CORT level versus vehicle (CORT serum levels): no significant difference

IC50 (in words) (CRF1R [1]): high IC50 values
Compound: COc1cc(Br)cc(OC)c1-c1c(C)nn2c(N(CCCC(F)(F)F)CC3CC3)nc(C)nc12 [BMK-C209]

IC50 (in words) (CRF1R [1]): high IC50 values
Compound: CCCN(CCCC(F)(F)F)c1nc(C)nc2c(-c3c(OC)cc(Br)cc3OC)c(C)nn12 [BMK-C210]

Compound: CC(=O)N1CCN(c2ccc(OCC3COC(Cn4ccnc4)(c4ccc(Cl)cc4Cl)O3)cc2)CC1 (stereo not shown) [Ketoconazole, reference compound]
CYP2C19, percentage of control activity (CYP2C19; reference chemical at 0.1 μM): > 100 ± 12.9 percentage of control activity
CYP2C9, percentage of control activity (CYP2C9; reference chemical at 0.1 μM): 94.0 ± 9.2 percentage of control activity
CYP1A2, percentage of control activity (CYP1A2; reference chemical at 0.1 μM): 94.3 ± 5.3 percentage of control activity

Liver microsomal stability, Human (percentage remaining after 30 min) ([4]; 1 μM, n = 3): 27.7 ± 3.87%
liver microsomal stability (remaining) ([4]; in almost all species (human and rat liver microsomes), 30 min): below 35%
Liver microsomal stability, Rat (percentage remaining after 30 min) [5]: 35.3 ± 5.85%
pIC50 (CRF1R [1]; HEK-Gα15 cells transfected with CRF1R, urocortin 2 nM, n = 3): 7.59
IC50 fold lower than that of Antalarmin (CRF1R [1]; hCRF1R Ca2+ antagonism assay): ~12 fold
IC50 fold lower than that of CP376395 (CRF1R [1]; hCRF1R Ca2+ antagonism assay): ~ 55 fold
AUC(0-t) (PK studies in rats; iv, I.V, 1 mg/kg): 913 ng·h/mL
half-life (PK studies in rats; iv, I.V, 1 mg/kg): 13.5 h
AUC(0-t) (PK studies in rats; po, P.O, 10 mg/kg): 3080 ng·h/mL
Cmax (PK studies in rats; po, P.O, 10 mg/kg): 267 ng/mL
Tmax (PK studies in rats; po, P.O, 10 mg/kg): 6.67 h
bioavailability (PK studies in rats; po, P.O, 10 mg/kg): 33.8%
half-life (PK studies in rats; po, P.O, 10 mg/kg): 5.66 h
Compound: COCCN(CCOC)c1nc(C)nc2c(-c3c(OC)cc(Br)cc3OC)c(C)nn12 [BMK-I-152]
CYP2C19, percentage of control activity (CYP2C19; [8]): 83.2 ± 5.0 percentage of control activity
pKi (CRF1R [6]): 9.46
CYP2D6, percentage of control activity (CYP2D6): > 100 ± 1.6 percentage of control activity
CYP2C9, percentage of control activity (CYP2C9; [8]): 89.9 ± 7.0 percentage of control activity
half-life [7]: < 0.5 h
CYP1A2, percentage of control activity (CYP1A2; [8]): 98.8 ± 1.8 percentage of control activity
CYP3A4, percentage of control activity (CYP3A4): 99.8 ± 3.0 percentage of control activity
